Data: US7414054B2, “3-(arylamino)methylene-1, 3-dihydro-2H-indol-2-ones as kinase inhibitors” (Allergan, Inc., priority 2001, dated 2008)

Key:
[1] = tested on: VEGF induced increases in intracellular calcium levels in HUVEC (human umbilical vein endothelial cells); assay: VEGF Stimulated Ca++ Signal In Vitro (FLIPR); type: cell-based; settings: VEGF 5 ng/mL; for IC50: 0.01 to 10.0 μM
Method: VEGF Stimulated Ca^++ Signal In Vitro
(§1) Automated FLIPR (Fluorometric Imaging Plate Reader) technology was used to screen for inhibitors of VEGF induced increases in intracellular calcium levels in fluorescent dye loaded endothelial cells. HUVEC (human umbilical vein endothelial cells) (Clonetics) were seeded in 96-well fibronectin coated black-walled plates overnight at 37° C./5% CO2. Cells were loaded with calcium indicator Fluo-4 for 45 minutes at 37° C. Cells were washed 4 times (Original Cell Wash, Labsystems) to remove extracellular dye. Test compounds were reconstituted in 100% DMSO and added to the cells to give a final DMSO concentration of 0.1%. For screening, cells were pre-incubated with test agents for 30 minutes, at a single concentration (10 μM) or at concentrations ranging from 0.01 to 10.0 μM followed by VEGF stimulation (5 ng/mL). Changes in fluorescence at 516 nm were measured simultaneously in all 96 wells using a cooled CCD camera. Data were generated by determining max-min fluorescence levels for unstimulated, stimulated, and drug treated samples. IC50 values for test compounds were calculated from % inhibition of VEGF stimulated responses in the absence of inhibitor. Protocol for KDR Assay: KDR Assay: The cytoplasmic domain of the human VEGF receptor (VEGFR-2) was expressed as a Histidine-tagged fusion protein following infection of insect cells using an engineered baculovirus. His-VEGFR-2 was purified to homogeneity, as determined by SDS-PAGE, using nickel resin chromatography. Kinase assays were performed in 96 well microtiter plates that were coated overnight with 30 μg of poly-Glu-Tyr (4:1) in 10 mM Phosphate Buffered Saline (PBS), pH 7.2-7.4. The plates were incubated with 1% BSA and then washed four times with PBS prior to starting the reaction. Reactions were carried out in 120 μL reaction volumes containing 3.6 μM ATP in kinase buffer (50 mM Hepes buffer pH 7.4, 20 mM MgCl2, 0.1 mM MnCl2 and 0.2 mM Na3VO4). Test compounds were reconstituted in 100% DMSO and added to the reaction to give a final DMSO concentration of 5%. Reactions were initiated by the addition 0.5 ng of purified protein. Following a ten minute incubation at 25° C., the reactions were washed four times with PBS containing 0.05% Tween-20. 100 μl of a monoclonal anti-phosphotyrosine antibody-peroxidase conjugate was diluted 1:10000 in PBS-Tween-20 and added to the wells for 30 minutes. Following four washes with PBS-Tween-20, 100 μl of O-phenylenediamine Dihydrochloride in Phosphate-citrate buffer, containing urea hydrogen peroxide, was added to the wells for 7 minutes as a colorimetric substrate for the peroxidase. The reaction was terminated by the addition of 100 μl of 2.5N H2SO4 to each well and read using a microplate ELISA reader set at 492 nm. IC50 values for compound inhibition were calculated directly from graphs of optical density (arbitrary units) versus compound concentration following subtraction of blank values. VEGF-induced Dermal Extravasation in Guinea Pig (Miles Assay). Male Hartley guinea pigs (300-600 g) were anesthetized with isofluorane, sheared, and given a single dose of drug or the respective vehicle. The guinea pigs were dosed orally unless indicated otherwise in Table 3. Ten minutes prior to the end of drug treatment, guinea pigs were anesthetized with isofluorane, and 0.5% Evans blue dye (EBD) in PBS (13-15 mg/kg dose of EBD) was injected intravenously. After 5 minutes, triplicate intradermal injections of 100 ng rhVEGF165 in 100 μl PBS and of 100 μl PBS alone were administered on the flank. After 20 minutes, each animal was euthanized with Pentosol, and the skin containing the intradermal injection sites was removed for image analysis.

[2] = tested on: laser-induced choroidal neovascularization; assay: Laser-induced Choroidal Neovascularization (CNV) in Rat (CNV Assay); type: in vivo
Method: Laser-induced Choroidal Neovascularization (CNV) in Rat (CNV Assay). CNV was induced and quantified in this model as previously described (Edelman and Castro. Exp. Eye Res. 2000; 71:523-533). On day 0, male Brown Norway rats (200-300 g) were anesthetized with 100 mg/kg Ketamine and 10 mg/kg Xylazine, and pupils were dilated with 1% Tropicamide. Using the blue-green setting of a Coherent Novus Argon Laser, 3 laser burns (90 mW for 0.1 s; 100 μm diameter) were given to each eye between the retinal vessels around the optic nerve head. Rats were dosed with test compounds in their indicated vehicles orally once daily.
On day 10, rats were sacrificed with 100% CO2, and blood vessels were labeled by vascular perfusion with 10 mg/ml FITC-dextran (MW 2×10^6). Using an epifluorescence microscope (20×) coupled to a spot digital camera and a PC, images were obtained from the flat mounts of the RPE-choroid-sclera from each eye, and the area occupied by hyperfluorescent neovessels within each laser lesion was measured using ImagePro 4 software.
To determine the dose required for 50% inhibition (ID50), the percent inhibition data was plotted as a function of oral dose, using the ‘best-fit’ analysis within MicroSoft Excel software. The ID50 value was verified visually by using the plotted data (horizontal line from 50% y value, at intersection with best-fit line drop vertical line to x axis (dose)).

[3] = target: T1, cytoplasmic domain of the human VEGF receptor (VEGFR-2) (Homo sapiens, UniProt P35968); assay: KDR Assay; type: biochemical; settings: His-VEGFR-2; 3.6 μM ATP
T1 construct: The cytoplasmic domain of the human VEGF receptor (VEGFR-2) was expressed as a Histidine-tagged fusion protein; His (Histidine tag); made in house; host or cells: insect cells (baculovirus)
Method: as §1, with “Following four washes with PBS-Tween-20, 100 μl of O-phenylenediamine Dihydrochloride in Phosphate-citrate buffer, containing urea hydrogen peroxide, was added to the wells for 7 minutes as a colorimetric substrate for the peroxidase.” left out, “VEGF-induced Dermal Extravasation in Guinea Pig (Miles Assay). Male Hartley guinea pigs (300-600 g) were anesthetized with isofluorane, sheared, and given a single dose of drug or the respective vehicle. The guinea pigs were dosed orally unless indicated otherwise in Table 3. Ten minutes prior to the end of drug treatment, guinea pigs were anesthetized with isofluorane, and 0.5% Evans blue dye (EBD) in PBS (13-15 mg/kg dose of EBD) was injected intravenously. After 5 minutes, triplicate intradermal injections of 100 ng rhVEGF165 in 100 μl PBS and of 100 μl PBS alone were administered on the flank. After 20 minutes, each animal was euthanized with Pentosol, and the skin containing the intradermal injection sites was removed for image analysis.” left out

T1 sequence (P35968 786-1356 limits assumed): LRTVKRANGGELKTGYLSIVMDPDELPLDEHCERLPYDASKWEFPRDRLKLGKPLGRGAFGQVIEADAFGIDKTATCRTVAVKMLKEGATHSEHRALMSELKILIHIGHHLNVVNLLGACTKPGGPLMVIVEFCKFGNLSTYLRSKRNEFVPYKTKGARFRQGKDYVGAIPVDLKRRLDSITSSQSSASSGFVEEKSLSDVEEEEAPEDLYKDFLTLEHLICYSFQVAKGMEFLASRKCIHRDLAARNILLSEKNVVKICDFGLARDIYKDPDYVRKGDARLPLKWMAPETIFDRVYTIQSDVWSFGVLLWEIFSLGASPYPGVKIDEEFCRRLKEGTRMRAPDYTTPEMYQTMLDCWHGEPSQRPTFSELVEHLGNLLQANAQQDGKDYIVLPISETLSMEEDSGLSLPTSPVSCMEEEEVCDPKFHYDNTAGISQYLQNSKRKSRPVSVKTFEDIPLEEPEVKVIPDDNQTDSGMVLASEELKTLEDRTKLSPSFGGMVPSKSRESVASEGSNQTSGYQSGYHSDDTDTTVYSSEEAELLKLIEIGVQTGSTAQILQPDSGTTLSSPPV

Row | IC50 [3] | Compound | VEGF Stimulated Ca^++ signal assay % inhibition @ 10 μM [1] | further results
1 |  | O=C1Nc2ccccc2C1=CNc1cccc(Br)c1 [Example 2] | −0.5% | 
2 |  | CC(O)c1ccc(NC=C2C(=O)Nc3ccc(Cl)cc32)cc1 (stereo not shown) [Example 72, 5-Chloro-3-{[4-(1-hydroxy-ethyl)-phenylamino]-methylene}-1,3-dihydro-indol-2-one] | 81.50% | IC50 [1]: 1560 nM
3 |  | COc1ccc(NC=C2C(=O)Nc3ccc(Cl)cc32)cc1F [Example 105, 5-Chloro-3-[(3-fluoro-4-methoxyphenylamino)-methylene]-1,3-dihydro-indol-2-one] |  | inhibition at 10 µM ([1]; Homo sapiens): 17.5%
4 |  | CCN(CC)CCCOc1ccc(NC=C2C(=O)Nc3ccccc32)cc1 [Example 214, 3-{[4-(3-Diethylamino-propoxy)-phenylamino]-methylene}-1,3-dihydro-indol-2-one] |  | inhibition in vivo at 80 mg/kg ([2]; Rattus norvegicus, 240 h, 80 mg/kg (sid), corn oil, oral): 85%
5 |  | O=C1Nc2ccccc2C1=CNc1ccc2c(c1)OCO2 [Example 80, 3-[(3,4-Methylenedioxyphenylamino)-methylene]-11,3-dihydro-indol-2-one] | 3.50% | 
6 |  | O=C1Nc2ccccc2C1=CNc1ccc(N2CCOCC2)cc1 [Example 40] |  | CNV Assay % inhibition (result in words) ([2]; 100 mg/kg (sid), PEG400, oral): toxic
7 | 380 nM | O=C1Nc2ccc(F)cc2C1=CNc1ccc(N2CCCCC2)cc1 [Example 221] |  | inhibition at 10 µM ([1]; Homo sapiens): 97.6%; IC50 ([1]; Homo sapiens): ≤ 1000 nM
8 | 400 nM | Cc1cccc2c1C(=CNc1ccc(C(=O)O)c(O)c1)C(=O)N2 [Example 155, 2-Hydroxy-4-[(4-methyl-2-oxo-1,2-dihydro-indol-3-ylidenemethyl)-amino]-benzoic acid] |  | 
9 |  | Cc1cccc2c1C(=CNc1ccc(NCCN3CCOCC3)cc1)C(=O)N2 [Example 242, 4-Methyl-3-{[4-(2-morpholin-4-yl-ethylamino)-phenylamino]-methylene}-1,3-dihydro-indol-2-one] | 95.82% | 
10 | 160 nM | CCN(CC)Cc1cc(NC=C2C(=O)Nc3cccc(C)c32)ccc1O [Example 161, 3-[(3-Diethylaminomethyl-4-hydroxy-phenylamino)-methylene]-4-methyl-1,3-dihydro-indol-2-one] |  | 
11 | 480 nM | 4-(5-Chloro-2-oxo-1,2-dihydro-indol-3-ylidenemethyl)-6-indazolylamine [Example 103] | 96.59% | IC50 [1]: 1040 nM
